Measurements: patent US7728128B2, “Dibenzo[c,h][1,5]naphthyridines and their use as DNA probes” (Institut National de la Sante et de la Recherche Medicate …, priority 2006, dated 2010)

Tested on: CT DNA
Experiment: viscometry (hydrodynamic studies) of CT DNA solutions
Type: binding, calf
Conditions: CT DNA 0.5 mM, drug 0.1 mM (0.2 dye/bp ratio)
Protocol: Calf thymus (CT) DNA was dissolved in 50 mM Na-phosphate buffer, pH 7.2, to a concentration of 0.1 or 0.5 mM relative to base pairs as described in the legend for FIGS. 3A and B. DNA solution was allowed to run through a custom-made capillary viscometer and the time necessary for the meniscus to pass a certain distance was measured using a stopwatch. All experiments were performed at 23° C. Viscosity values were calculated using the equation: η=(t−t0)/t0, where t is the flow time of DNA solution (with or without dye), and t0 is the flow time of Na-phosphate buffer alone. For each control and DNA solutions with dyes flow times were measured three to five times. Viscosity of DNA solutions with dyes were calculated as (η/η0)^1/3, where η0 and η are relative viscosities of the CT DNA solution in the absence and presence of the dye, respectively. This calculation stems from the relationship which exists between the relative solution viscosity and the relative contour length (L/L0): L/L0=(η/η0)^1/3, where L stands for the apparent molecular length (Muller, W. et al., 1968, J Mol Biol, 35, 251-290). Average viscosity values and standard error of the mean (SEM) were determined using (η/η0)^1/3 values calculated for each time flow measurement.
DNA-binding dyes interact with dsDNA by intercalation or external binding, or both. External binding most often involves the minor groove of DNA (Kopka et al.; Pjura, P. E., et al., 1987, J Mol Biol, 197, 257-271). Intercalation occurs when a ligand inserts itself between the opposite strands of DNA. In order to determine the mechanism of compound I binding to dsDNA, the inventors performed hydrodynamic studies. This approach is based on the observation that intercalating molecules increase the length of DNA fragments and, consequently, enhance the viscosity of DNA solutions (Muller W. et al.; Suh, D. et al., 1995, Bioorg Med Chem, 3, 723-728). For this experiment, compound I has been compared to the known DNA intercalator ethidium bromide and to the external minor groove binder Hoechst 33258. CT DNA at 0.5 mM was mixed with drugs at 0.1 mM concentration (0.2 dye/bp ratio) and used for viscometry measurements.
The inventors then wondered whether the increase in viscosity is equally matched by the increase in fluorescence intensity. To answer this question, CT DNA at 0.1 mM (bp) was mixed with increasing amounts of compound I and viscosity measurements were performed as above. The viscosity of the DNA/compound I solutions increased up to a dye/bp ratio 1 (FIG. 3B). To correlate the increase in viscosity with fluorescence, the inventors measured fluorescence intensities at 484 nm of the compound I/DNA solutions used for the viscosity measurements.

SMILES: CN1CCN(c2ccc3[nH]c(-c4ccc5[nH]c(-c6ccc(O)cc6)nc5c4)nc3c2)CC1 [Hoechst 33258, reference compound]
- effect on viscosity of DNA solution: decrease slightly
